The source of these data is patent publication US20100130607A1, “NEUROPROTECTION IN DEMYELINATING DISEASES” (priority 2007, published 2010).

Test [1] relates to MOG-EAE in C57BL/6 mice. The test is described as follows: Clinical course (clinical score) of active MOG-EAE. It is filed as in vivo. Conditions: oral, from day -20, up to 72 days p.i., vs methocel control. The protocol: Treatment started at day -20 before the injection of MOG. The following compounds were administered orally to three groups of mice as follows: 1) Ca-monomethyl fumarate 5 mg/kg body weight bid; 2) dimethyl fumarate 15 mg/kg body weight bid; 3) 0.08% methocel as control. For analyzing the clinical course, data was pooled from two experiments (one experiment with 6 mice and another with 8 mice per group yielding a total number of 14 mice per experimental group). Clinical evaluation-Symptoms were scored 1-10 on a daily basis as described in Linker et al., Nat. Med., 2002, […] (see also Hartung et al., Brain, 1988, 11, 1039-1059). Briefly, disease severity was scored as follows: 0, normal; 1, reduced tone of tail; 2, limp tail, impaired righting; 3, absent righting; 4, gait ataxia; 5, mild paraparesis of hindlimbs; 6, moderate paraparesis; 7, severe paraparesis or paraplegia; 8, tetraparesis; 9, moribund; 10, death. Relapses were defined as deterioration by 2 points or more within 2 days. […] Animals were pooled from two experiments (total number of 14 mice per group). Mice were followed until the late phase of the disease (72 days p.i.).

Test [2] deals with MOG-EAE in C57BL/6 mice. Nature of the test: Blinded histological analysis of spinal cord in MOG-EAE, 72 days p.i. It is filed as in vivo. Conditions: oral, vs methocel control; for numbers of CD 3 positive T cells infiltrating the spinal cord / numbers of Mac-3 positive macrophages and microglia infiltrating the spinal cord: 72 days after induction of MOG-EAE; for axonal loss (relative axonal density) / level of demyelination (% white matter): spinal cord, 72 days p.i. The procedure:
Treatment started at day -20 before the injection of MOG. The following compounds were administered orally to three groups of mice as follows: 1) Ca-monomethyl fumarate 5 mg/kg body weight bid; 2) dimethyl fumarate 15 mg/kg body weight bid; 3) 0.08% methocel as control. For analyzing the clinical course, data was pooled from two experiments (one experiment with 6 mice and another with 8 mice per group yielding a total number of 14 mice per experimental group). Histology-One experiment was terminated on day 72 p.i. for histologic evaluation. At that time point, 6 mice in the MMF and 6 mice in the control group were available for analysis. The DMF group consisted of 4 mice (2 non-EAE related drop-outs). Mice were anesthetized with ether, bled and perfused with 25 ml Ringer solution and 10 ml of 4% paraformaldehyde in buffered PBS. Spinal cord was dissected out and fixed overnight in 4% paraformaldehyde in buffered PBS at 4° C. before embedding in paraffin. Paraffin sections were stained with hematoxylin and eosin for visualization of inflammatory infiltrates and Luxol fast blue for visualization of demyelination. Coded sections from cervical, thoracic and lumbar spinal cord were evaluated by a blinded observer by means of overlaying a stereological grid and counting mean CD3 and Mac-3 positive cells within 3 visual fields (each 0.096 mm^2) with the most intense pathology under a 400-fold magnification. The extent of demyelination was assessed by relating the number of grid squares with demyelination to the total number of grid squares containing white matter over an average of 8-10 independent levels of spinal cord per mouse. CD3, Mac-3 positive cells and APP positive axons were quantified on 3 representative sections, each one of cervical, thoracic and lumbar spinal cord by counting 2 defined areas with the most intense pathology under a 40-fold magnification. Histological evaluation was performed as described in Eugster et al., Eur. J. Immunol., 1999, […].

The mark [3] stands for this setting: Ca-monomethyl fumarate 5 mg/kg bid.

“Also recorded” adds a separate entry of the source. Where a name gives a salt, the structure may show the parent alone.

For the compound `COC(=O)/C=C/C(=O)OC` [DMF, dimethyl fumarate, reference compound], the “clinical score / disease course” value in the test with MOG-EAE in C57BL/6 mice [1] (dimethyl fumarate 15 mg/kg body weight bid) is reported as “significantly milder disease course; also recorded: effective to reduce the clinical score up to 72 days p.i”. For the same compound, in the test with MOG-EAE in C57BL/6 mice [2] (dimethyl fumarate 15 mg/kg bid), the “numbers of CD 3 positive T cells infiltrating the spinal cord” value is given as “not significantly different”; the “numbers of Mac-3 positive macrophages and microglia infiltrating the spinal cord” value is listed as “not significantly different”; the “axonal loss (relative axonal density)” value is “reduced”; the “level of demyelination (% white matter)” value was “reduced”.

Consider `COC(=O)/C=C/C(=O)O` [MMF, Ca-monomethyl fumarate], for which, in the test with MOG-EAE in C57BL/6 mice [1] (Ca-monomethyl fumarate 5 mg/kg body weight bid), the “clinical score / disease course” value is reported as “not sufficient to significantly affect the clinical score”. In the test with MOG-EAE in C57BL/6 mice [2] (setting [3]), the “numbers of CD 3 positive T cells infiltrating the spinal cord” value is listed as “not significantly different”; the “numbers of Mac-3 positive macrophages and microglia infiltrating the spinal cord” value is on record as “not significantly different”; the “axonal loss (relative axonal density)” value was “reduced demyelination and axonal loss”; the “level of demyelination (% white matter)” value was “reduced demyelination and axonal loss”.
